This data set in a line: Solubility of monomers and polymers in water, methanol, chloroform. The format is physicochemical.

In brackets after ≈: the same amount, converted by molar mass.

From the text: Monomer solubility (e.g., in water, methanol, or chloroform) varied with the selection of R-groups on the ammonium cation.

As for `C=Cc1ccc(CC(CC[N+](CCCC)(CCCC)CCCC)S(=O)(=O)[O-])cc1` (centres unmarked) [tri-n-butyl derivative, 4-(Tributylammonio)-1-(4-vinylphenyl)butane-2-sulfonate], for the setting “similar concentration (˜500 mg mL-1)”, the “Monomer solubility in MeOH” value is “required slightly elevated temperatures to attain solubility in MeOH”. The term solubility denotes the concentration that dissolves in the medium under given conditions. In the case of `C=Cc1ccc(CC(CC[N+](CCC)(CCC)CCC)S(=O)(=O)[O-])cc1` (centres unmarked) [tri-n-propyl derivative, 4-(Tripropylammonio)-1-(4-vinylphenyl)butane-2-sulfonate], the solubility (methanol, organic solvent or mixture, monomer, room temperature, read-out: Monomer solubility in MeOH (clear solution)) is approximately 500 mg/mL (≈ 1310 mM).

The values are drawn from patent US20230331918A1, “AMMONIUM AND SULFONIUM SULFONATE ZWITTERIONS AND POLYMERS DERIVED THEREFROM” (University of Massachusetts, priority 2022, published 2023).
